The test system of test [1] is EAE mice. The experiment in a line: Experimental autoimmune encephalomyelitis (EAE) clinical score. The class given is in vivo, mouse.
Test [2] has as its system splenocytes. In words: Propidium iodide DNA cell cycle flow cytometry of splenocytes. The class given is cell-based, mouse. The conditions noted are these: activated splenocytes. The source says:
Cell-cycle flow cytometry with propidium iodide was used to corroborate the above results, and ensure the reduction in proliferation was not due to cell death. […] To further investigate whether the reduction of proliferation was due to cell death, Annexin V and propidium iodide staining were used to differentiate necrotic cells (propidium iodide+), apoptotic cells (annexin V+), dead cells (propidium iodide+ and annexin V+), and live cells (propidium iodide-annexin V−).
Cell cycle staining with propidium iodide (PI) and analysis by flow cytometry gives percentage of cells in apoptosis, G1, G2, and synthesis, and apoptosis. Following a membrane permeabilization, PI chelates to DNA and level of staining specifies the stage of the cell cycle (e.g., G2 phase will have twice the DNA and thus twice the PI signal as G1 phase, apoptotic cells contain less DNA than healthy cells and are identified by low PI staining). 1×10^6 splenocytes were used per sample, with four replicates per condition. Cells were collected into a tube with PBS and centrifuged (200 r.p.m. for 5 minutes). […] Suspension was transferred to a FACs tube and analyzed. Annexin V/Propidium iodide staining was detected using the Annexin V FITC apoptosis detection kit (BD Biosciences, #556547), which was performed according to manufacturer's instructions.

In test [3] the test system is EAE mice. The experiment in a line: Flow cytometry of spinal cord and circulating leukocytes in EAE mice. The class given is in vivo, mouse. An excerpt:
To assess the inflammatory profile of circulating leukocytes, we performed flow cytometry using a modified protocol published previously [Bellavance, M. A., Gosselin, D., Yong, V. W., Stys, P. K. & Rivest, S. Patrolling monocytes play a critical role in CX3CR1-mediated neuroprotection during excitotoxicity. Brain Struct Funct 220, 1759-76 (2015)]. Briefly, mice were anaesthetized using ketamine/xylazine, after which blood was drawn via cardiac puncture. Heparin-coated syringes were used to draw approximately 130 μL of blood, which was then subsequently diluted with 70 μL of Hanks' Balanced Salt Solution (HBSS; Gibco) without calcium and magnesium. Fc receptors were then blocked by addition of Mouse BD Fc Block (1:100; BD Pharmingen) for 30 minutes at 4° C. Primary antibodies (1:50) were then added and incubated for 45 minutes at 4° C. The primary antibodies used were CD45-PerCP (BD Pharmingen; Clone 30-F11), CD11b-FITC (BD Pharmingen; Clone M1/70), Ly6G-APC-Cy7 (BD Pharmingen; Clone 1A8), Ly6C-V450 (BD Horizon; Clone AL-21), and CD3-PE (BD Pharmingen; Clone 17A2). Red blood cells were then lysed by rocking samples at room temperature for 12 minutes with 1 mL of BD FACS Lysing Solution (BD Biosciences). Samples were then washed at 1200 rpm for 10 minutes at 4° C., followed by two more washes at 2000 rpm for 3 minutes at 4° C. Prior to acquisition on a flow cytometer (BD LSRII), cells were then fixed in 1% formalin for 10 minutes and then resuspended in HBSS without calcium and magnesium.
For flow cytometry of the spinal cord, spinal cords were dissected following a PBS perfusion. The thoracic and lumber sacral part of isolated spinal cords were separated into neural and leucocyte populations by density gradient centrifugation using isotonic Percoll (GE Healthcare). The leukocytes samples were prepared at 4° C. in fluorescence-activated cell sorting (FACS) buffer solution (BD Biosciences) and Fc receptors were then blocked by addition of Mouse BD Fc Block (1:100; BD Pharmingen) for 30 minutes at 4° C. The cells were stained with antibodies against CD45-PerCP (BD Pharmingen; Clone 30-F11), CD11b-FITC (BD Pharmingen; Clone M1/70) and CD3-APC-Cy7 (BD Pharmingen; Clone 17A2) for 45 minutes and then washed three times with FACS buffer. The cells were fixed in 1% buffered formalin for 10 min and resuspended in the 200 μl of the FACS buffer.
Data acquisition was performed on a flow cytometer (BD FACSAria; BD Biosciences) and analysed with FlowJo software (version 8.6, TreeStar). To ensure proper compensation and gating, unstained samples, appropriate isotype controls, and single-stain controls were included. All data was analyzed using FlowJo software.

Test [4] concerns splenocytes. In words: Splenocyte thymidine proliferation assay (anti-CD3/anti-CD28). In kind it is cell-based, mouse. The following applies: increasing concentrations, 48 hours.
Test [5] relates to splenocytes. The following applies: shown previously (Grigorian et al. 2011); cited from earlier work.
For test [6], the system named is CSPG production by astrocytes. The following applies: previously described (Keough et al. 2016); cited from earlier work.
For test [7], the system named is EAE mice. The following applies: previously shown (Keough et al. 2016), 50 mgkg−1; cited from earlier work.
Test [8] deals with mice demyelinated with lysolecithin. The following applies: previously described (Keough et al. 2016); cited from earlier work.
The mark [9] stands for this setting: 50 mg/kg intraperitoneal daily, day 7 to day 15.
Setting [10] is: 25 mg/kg daily day 7 to 15, lumbar/thoracic spinal cord.
Where [11] appears, read: 25 mg/kg daily day 7 to 15, spinal cord.

This is an account of results in patent publication US12600740B2, “Fluorinated N-acetyl glucosamine analogs and xylose derivatives” (UTI Limited Partnership, priority 2018, dated 2026).

“Also recorded” adds a separate entry of the source.

Consider `CC(=O)NC1C(O)OC(COC(C)=O)[C@@H](F)[C@@H]1OC(C)=O` (mixture of isomers) [Compound 10], for which, in test [1] (setting [9]), the EAE clinical score entry is listed as “did not reduce EAE clinical score; also recorded: no significant improvement in EAE clinical score”.
As to `CC(=O)NC1C(OC(C)=O)OC(COC(C)=O)C(F)(F)[C@@H]1OC(C)=O` (mixture of isomers) [Compound 16, 2-Acetamido-1,3,6-tri-O-acetyl-2,4-dideoxy-4,4-difluoro-α/β-D-xylo-hexopyranose], the “percentage of cells in cell cycle phases” value in test [2] is on record as “reduced the percentage of cells in the S (DNA synthesis)-phase of the cell cycle”. In addition, the EAE clinical score result in test [1] (25 mg/kg daily from peak clinical severity (day 15)) is on record as “significantly reduced EAE clinical severity; also recorded: did not significantly improve disability until nine days after treatment”. Besides, the “sum of scores (burden of disease)” value in test [1] (25 mg/kg intraperitoneal daily, day 7 to day 15) is reported as “significantly reduced”. For the same compound, the EAE clinical score result in test [1] (25 mg/kg intraperitoneal daily, day 7 to day 15 (pre-onset)) is listed as “significantly lower EAE clinical scores than the control group”. Besides, in test [1] (setting [9]), the EAE clinical score entry is “pronounced reduction in EAE clinical severity beyond that seen for the mono-fluorinated Ac-4-F-GlcNAc”. Also, the “circulating monocyte, neutrophil and lymphocyte populations” value in test [3] (25 mg/kg daily day 7 to 15, blood at peak EAE) is listed as “no significant difference; also recorded: did not show changes in monocyte or lymphocyte populations; also recorded: did not affect levels of circulating leukocytes”. Also, in test [3] (setting [10]), the “CD45+ CD3+ T lymphocytes within the spinal cord” value is “significantly lowered” and the “CD45HiCD11b+ infiltrating monocytes/macrophages in spinal cord” value was “significantly decreased”. Moreover, in test [3] (setting [11]), the “median fluorescence intensity of CD11b of CD11b+CD45+ cells” value was “significantly reduced” and the “median fluorescence intensity of CD45 in CD11b+CD45+ cells” value is on record as “decreased”. Also, the “dose-response to reduce proliferation in splenocytes” value in test [4] is “more effective than Ac-4-F-GlcNAc 3 at lower concentrations”.
Take `CC(=O)N[C@H]1[C@H](OC(C)=O)O[C@H](COC(C)=O)[C@@H](OC(C)=O)[C@@H]1OC(C)=O` [Compound 1, reference compound]: the splenocyte proliferation entry in test [5] is listed as “reduction in splenocyte proliferation”.
`CC(=O)NC1C(OC(C)=O)OC(COC(C)=O)[C@@H](F)C1OC(C)=O` (stereo partly shown) [Compound 3, reference compound]: the “production of CSPGs by astrocytes” value in test [6] is recorded as “reduced production of CSPGs by astrocytes”. Further, the EAE clinical disability entry in test [7] is listed as “attenuated the severity of mice afflicted with EAE; also recorded: reduced the ensuing EAE clinical disability”. Also, the remyelination entry in test [8] was “promoted remyelination following lysolecithin demyelination of the mouse spinal cord”.
